Earlier results in US20050037089A1, “Method for promoting bone growth” (priority 2003, published 2005).

SMILES: CC[C@H](C)[C@H](NC(=O)[C@H](CCC(=O)O)NC(=O)[C@H](CO)NC(=O)[C@@H](NC(=O)[C@@H](N)CO)C(C)C)C(=O)N[C@@H](CCC(N)=O)C(=O)N[C@@H](CC(C)C)C(=O)N[C@@H](CCSC)C(=O)N[C@@H](Cc1cnc[nH]1)C(=O)N[C@@H](CC(N)=O)C(=O)N[C@@H](CC(C)C)C(=O)NCC(=O)N[C@@H](CCCCN)C(=O)N[C@@H](Cc1cnc[nH]1)C(=O)N[C@@H](CC(C)C)C(=O)N[C@@H](CC(N)=O)C(=O)N[C@@H](CO)C(=O)N[C@@H](CCSC)C(=O)N[C@@H](CCC(=O)O)C(=O)N[C@@H](CCCN=C(N)N)C(=O)N[C@H](C(=O)N[C@@H](CCC(=O)O)C(=O)N[C@@H](Cc1c[nH]c2ccccc12)C(=O)N[C@@H](CC(C)C)C(=O)N[C@@H](CCCN=C(N)N)C(=O)N[C@@H](CCCCN)C(=O)N[C@@H](CCCCN)C(=O)N[C@@H](CC(C)C)C(=O)N[C@@H](CCC(N)=O)C(=O)N[C@@H](CC(=O)O)C(=O)N[C@H](C(=O)N[C@@H](Cc1cnc[nH]1)C(=O)N[C@@H](CC(N)=O)C(=O)N[C@@H](Cc1ccccc1)C(=O)O)C(C)C)C(C)C [hPTH(1-34)]
- bone formation (patients with osteoporosis, subcutaneous administration): increase bone formation
- bone density (postmenopausal women, daily subcutaneous administration of 20 μg or 40 μg): increase bone density
